# Values joined by “and” are separate entries in the source; they are usually repeats but may differ in a detail not shown here. Equal values may be shown once. Read-outs that look alike come from different tables or passages of the source. *1 amine or outer side, *2 acyl side, *3 side chain or, on linkers, in order; H or OH if unused. Side-chain parts run from the residue outwards. [ ]: non-standard residue; d: D form. The star is where a group is joined. C20 diacid = O=C(O)CCCCCCCCCCCCCCCCCCC(=O)*; γGlu = O=C(O)[C@H](CCC(=O)[*:2])N[*:1]; εLys = N[C@@H](CCCCN[*:1])C(=O)[*:2]; αMeL = CC(C)C[C@](C)(N)C(=O)O; AEEA = NCCOCCOCC(=O)O; Aib = CC(C)(N)C(=O)O
# How the values were obtained:
# human CRHR2 = target: T1, human CRHR2 (Homo sapiens, UniProt Q13324); assay: Human CRHR2 cAMP assay (HTRF) in HEK293 cells stably expressing human CRHR2; assay type: cell-based; settings: HEK293 cells overexpressing human CRHR2; relative EC50, maximum 10 nM human UCN2; mean ± SE; read-out: hCRHR2 cAMP EC50 (pM, ± SE)
# T1 construct: expressed in transfected cells
# T1 sequence (Q13324 1-438 isoform Q13324-2): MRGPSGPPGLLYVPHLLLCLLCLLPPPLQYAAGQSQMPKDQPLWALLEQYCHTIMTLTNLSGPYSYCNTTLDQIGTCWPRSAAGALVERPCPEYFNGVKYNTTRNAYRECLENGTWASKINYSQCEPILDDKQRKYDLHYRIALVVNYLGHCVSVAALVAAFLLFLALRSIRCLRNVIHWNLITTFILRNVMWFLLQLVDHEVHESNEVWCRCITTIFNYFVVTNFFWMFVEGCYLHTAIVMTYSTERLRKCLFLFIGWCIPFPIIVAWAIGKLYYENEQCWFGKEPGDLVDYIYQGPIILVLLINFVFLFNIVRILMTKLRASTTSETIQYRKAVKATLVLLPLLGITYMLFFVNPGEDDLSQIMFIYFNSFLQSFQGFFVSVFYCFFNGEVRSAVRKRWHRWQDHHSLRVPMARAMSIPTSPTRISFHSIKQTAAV
# Outline: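 Peptide-stimulated cAMP was measured in stable HEK293 lines by HTRF ratio (665/620 nm), converted to pmol/well via standard curve. Assay buffer contained 0.25 mM IBMX, 0.1% casein and 5 mM HEPES pH 7.4. CRHR2b cells (5,000/well) were stimulated 30 min at room temperature; CRHR1 cells (25,000/well) 1 h at 37 °C.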
# [1] = Pharmacokinetics in Sprague Dawley rats, single subcutaneous or intravenous dose (incl. 10, 30, 100 nmol/kg dose response); assay type: in vivo; settings: for Tmax: read-out: Tmax
# [2] = dose response, single subcutaneous dose 10 nmol/kg, male Sprague Dawley rats, individual animal
# [3] = dose response, single subcutaneous dose 30 nmol/kg, male Sprague Dawley rats, individual animal
# [4] = dose response, single subcutaneous dose 100 nmol/kg, male Sprague Dawley rats, individual animal
# [5] = male Sprague Dawley rats, single intravenous dose 187 nmol/kg, individual animal
# [6] = male, Sprague Dawley, rat, plasma, iv, 187 nmol/kg, single intravenous dose 187 nmol/kg, Mean
# [7] = male, Sprague Dawley, rat, plasma, sc, 10 nmol/kg, dose response, single subcutaneous dose 10 nmol/kg, individual animal
# [8] = male, Sprague Dawley, rat, plasma, sc, 10 nmol/kg, dose response, single subcutaneous dose 10 nmol/kg, mean
# [9] = male, Sprague Dawley, rat, plasma, sc, 30 nmol/kg, dose response, single subcutaneous dose 30 nmol/kg, individual animal
# [10] = male, Sprague Dawley, rat, plasma, sc, 30 nmol/kg, dose response, single subcutaneous dose 30 nmol/kg, mean
# [11] = male, Sprague Dawley, rat, plasma, sc, 100 nmol/kg, dose response, single subcutaneous dose 100 nmol/kg, individual animal
# [12] = male, Sprague Dawley, rat, plasma, sc, 100 nmol/kg, dose response, single subcutaneous dose 100 nmol/kg, mean
# [13] = male, Sprague Dawley, rat, plasma, sc, 187 nmol/kg, single subcutaneous dose 187 nmol/kg, individual animal
# [14] = male, Sprague Dawley, rat, plasma, sc, 187 nmol/kg, single subcutaneous dose 187 nmol/kg, mean
# [15] = single subcutaneous dose 187 nmol/kg, male Sprague Dawley rats, individual animal
substance,measurement,setting,value
"Ac-GSPSIVTS[αMeL]DVPT[Aib][αMeL]LQKILEQERAEKARQQAK([γGlu-AEEA-εLys-C20 diacid])EAAEILAQV-NH2 [SEQ ID NO: 1, Ac-GSPSIVTS αMeL DVPT Aib αMeL LQKILEQERAEKARQQAK(γE-(2-[2-(2-Amino-ethoxy)-ethoxy]-acetyl)-ϵK-CO-(CH2)18-CO2H)EAAEILAQV-NH2]",EC50,human CRHR2,9.3 ± 1.1 pM
same,AUC0-inf,[1]; [2],2.07 µM·h and 1.86 µM·h and 2.21 µM·h
same,CL/F,[1]; [2],6.10 mL/h/kg and 4.63 mL/h/kg
same,Cmax,[1]; [2],37.7 nM and 26.4 nM and 38.5 nM
same,T1/2,[1]; [2],41.7 h and 31.1 h
same,AUC0-inf,[1]; [3],6.42 µM·h and 6.92 µM·h and 7.69 µM·h
same,CL/F,[1]; [3],4.55 mL/h/kg and 4.19 mL/h/kg
same,Cmax,[1]; [3],102 nM and 110 nM and 104 nM
same,T1/2,[1]; [3],37.1 h and 36.1 h
same,AUC0-inf,[1]; [4],18.8 µM·h and 21.1 µM·h and 20.7 µM·h
same,CL/F,[1]; [4],4.86 mL/h/kg and 4.91 mL/h/kg
same,Cmax,[1]; [4],348 nM and 332 nM and 321 nM
same,T1/2,[1]; [4],26.0 h and 24.6 h
same,AUC0-inf,[1]; [5],111 µM·h and 91.9 µM·h and 77.3 µM·h
same,C0,[1]; [5],5970 nM and 6950 nM and 2400 nM
same,CL,[1]; [5],2.04 mL/h/kg and 2.42 mL/h/kg
same,T1/2,[1]; [5],47.5 h and 23.2 h and 31.0 h
same,clearance,[1]; [6],2.05 mL/h/kg
same,half-life,[1]; [6],33.9 h
same,clearance,"[1]; male, Sprague Dawley, rat, plasma, iv, 187 nmol/kg, single intravenous dose 187 nmol/kg, individual animal",1.69 mL/h/kg
same,half-life,[1]; [7],26 h
same,CL/F,"[1]; male, Sprague Dawley, rat, plasma, sc, 10 nmol/kg, dose response, single subcutaneous dose 10 nmol/kg, individual animal, read-out: CL/F (converted)",5.1 mL/h/kg
same,Tmax,[1]; [7],24 h
same,half-life,[1]; [8],32.9 h
same,CL/F,"[1]; male, Sprague Dawley, rat, plasma, sc, 10 nmol/kg, dose response, single subcutaneous dose 10 nmol/kg, mean, read-out: CL/F (converted)",5.28 mL/h/kg
same,Tmax,[1]; [8],24 h
same,half-life,[1]; [9],31.5 h
same,CL/F,"[1]; male, Sprague Dawley, rat, plasma, sc, 30 nmol/kg, dose response, single subcutaneous dose 30 nmol/kg, individual animal, read-out: CL/F (converted)",4.8 mL/h/kg
same,Tmax,[1]; [9],24 h
same,half-life,[1]; [10],34.9 h
same,CL/F,"[1]; male, Sprague Dawley, rat, plasma, sc, 30 nmol/kg, dose response, single subcutaneous dose 30 nmol/kg, mean, read-out: CL/F (converted)",4.51 mL/h/kg
same,Tmax,[1]; [10],32 h
same,half-life,[1]; [11],30.8 h
same,CL/F,"[1]; male, Sprague Dawley, rat, plasma, sc, 100 nmol/kg, dose response, single subcutaneous dose 100 nmol/kg, individual animal, read-out: CL/F (converted)",5.46 mL/h/kg
same,Tmax,[1]; [11],24 h
same,half-life,[1]; [12],27.1 h
same,CL/F,"[1]; male, Sprague Dawley, rat, plasma, sc, 100 nmol/kg, dose response, single subcutaneous dose 100 nmol/kg, mean, read-out: CL/F (converted)",5.08 mL/h/kg
same,Tmax,[1]; [12],24 h
same,half-life,[1]; [13],37.7 h
same,CL/F,"[1]; male, Sprague Dawley, rat, plasma, sc, 187 nmol/kg, single subcutaneous dose 187 nmol/kg, individual animal, read-out: CL/F (converted)",3.67 mL/h/kg
same,Tmax,[1]; [13],24 h
same,half-life,[1]; [14],35.7 h
same,CL/F,"[1]; male, Sprague Dawley, rat, plasma, sc, 187 nmol/kg, single subcutaneous dose 187 nmol/kg, mean, read-out: CL/F (converted)",4.07 mL/h/kg
same,Tmax,[1]; [14],24 h
same,AUC0-inf,"[1]; rat, plasma, sc, dose response, single subcutaneous dose 10 nmol/kg, male Sprague Dawley rats, mean, read-out: AUC0-inf",2.05 µM·h
same,Cmax,"[1]; rat, plasma, sc, dose response, single subcutaneous dose 10 nmol/kg, male Sprague Dawley rats, mean, read-out: Cmax",34.2 nM
same,AUC0-inf,"[1]; rat, plasma, sc, dose response, single subcutaneous dose 30 nmol/kg, male Sprague Dawley rats, mean, read-out: AUC0-inf",7.01 µM·h
same,Cmax,"[1]; rat, plasma, sc, dose response, single subcutaneous dose 30 nmol/kg, male Sprague Dawley rats, mean, read-out: Cmax",105 nM
same,AUC0-inf,"[1]; rat, plasma, sc, dose response, single subcutaneous dose 100 nmol/kg, male Sprague Dawley rats, mean, read-out: AUC0-inf",20.2 µM·h
same,Cmax,"[1]; rat, plasma, sc, dose response, single subcutaneous dose 100 nmol/kg, male Sprague Dawley rats, mean, read-out: Cmax",334 nM
same,AUC0-inf,"[1]; rat, plasma, sc, single subcutaneous dose 187 nmol/kg, male Sprague Dawley rats, mean, read-out: AUC0-inf",49 µM·h
same,Cmax,"[1]; rat, plasma, sc, single subcutaneous dose 187 nmol/kg, male Sprague Dawley rats, mean, read-out: Cmax",657 nM
same,AUC0-inf,"[1]; rat, plasma, male Sprague Dawley rats, single intravenous dose 187 nmol/kg, Mean, read-out: AUC0-inf",93.4 µM·h
same,C0,"[1]; rat, plasma, male Sprague Dawley rats, single intravenous dose 187 nmol/kg, Mean, read-out: C0",5110 nM
same,AUC0-inf,[1]; [15],53.9 µM·h and 41.2 µM·h and 51.8 µM·h
same,CL/F,[1]; [15],4.77 mL/h/kg and 3.77 mL/h/kg
same,Cmax,[1]; [15],804 nM and 511 nM and 657 nM
same,T1/2,[1]; [15],38.2 h and 31.2 h

# Source: patent publication US20250163119A1, “COMPOUNDS FOR THE TREATMENT OF DIABETES OR OBESITY” (Eli Lilly and Company, priority 2023, published 2025)
